This note sets out measurements from patent US7495100B2, “Synthesis of indenoisoquinolines” (Purdue Research Foundation, priority 2004, dated 2009).

Read-outs that look alike come from different tables or passages of the source. Bounds are passed on as bounds.

For one data set, the system named is UACC-62. Kind of data set: NCI screen antiproliferative activity, melanoma UACC-62. As to conditions: concentration corresponding to 50% growth inhibition, read-out: cytotoxicity GI50 melanoma UACC-62. It is filed as cell-based, human. The method, then:
(§1) The indenoisoquinolines described herein were examined for antiproliferative activity against the human cancer cell lines in the National Cancer Institute screen, in which the activity of each compound was evaluated with approximately 55 different cancer cell lines of diverse tumor origins. The MGM is based on a calculation of the average GI50 for all of the cell lines tested (approximately 55) in which GI50 values below and above the test range (10^−8 to 10^−4 molar) are taken as the minimum (10^−8 molar) and maximum (10^−4 molar) drug concentrations used in the screening test. The relative potencies of the compounds described herein in the production of topoisomerase I-mediated DNA cleavage are also listed in Table 1.

For data set [1], the system named is human cancer cell lines in the National Cancer Institute screen. Kind of data set: NCI screen mean graph midpoint over approximately 55 cancer cell lines. It is filed as cell-based. Conditions: for MGM (mean graph midpoint for growth inhibition): average GI50 of all human cancer cell lines tested (approximately 55), test range 10^-8 to 10^-4 molar. The method, then: as §1

A further data set concerns MDA-MB-435. The experiment in a line: NCI screen antiproliferative activity, breast MDA-MB-435. Format: cell-based, human. As to conditions: concentration corresponding to 50% growth inhibition, read-out: cytotoxicity GI50 breast MDA-MB-435. The method, then: as §1
The subject of another data set is HCT-116. Kind of data set: NCI screen antiproliferative activity, colon HCT-116. Conditions: concentration corresponding to 50% growth inhibition, read-out: cytotoxicity GI50 colon HCT-116. Format: cell-based, human. The method, then: as §1
The subject of the next data set is SF-268. The experiment in a line: NCI screen antiproliferative activity, CNS SF-268. It is filed as cell-based, human. Conditions: concentration corresponding to 50% growth inhibition, read-out: cytotoxicity GI50 CNS SF-268. On the procedure:
as §1

The next data set has as its system DU-145. The experiment in a line: NCI screen antiproliferative activity, prostate DU-145. It is filed as cell-based, human. Conditions: concentration corresponding to 50% growth inhibition, read-out: cytotoxicity GI50 prostate DU-145. On the procedure: as §1
A further data set concerns SN12C. Kind of data set: NCI screen antiproliferative activity, renal SN12C. Format: cell-based, human. Conditions: concentration corresponding to 50% growth inhibition, read-out: cytotoxicity GI50 renal SN12C. The method, then:
as §1

The next data set deals with HOP-62. The experiment in a line: NCI screen antiproliferative activity, lung HOP-62. It is filed as cell-based, human. Conditions: concentration corresponding to 50% growth inhibition, read-out: cytotoxicity GI50 lung HOP-62. On the procedure: as §1
The subject of the next data set is OVCAR-3. Kind of data set: NCI screen antiproliferative activity, ovarian OVCAR-3. Format: cell-based, human. As to conditions: concentration corresponding to 50% growth inhibition, read-out: cytotoxicity GI50 ovarian OVCAR-3. The method, then:
as §1

Another data set has as its target T1, topoisomerase I (top1) (Homo sapiens, UniProt P11387).
T1 sequence (P11387 1-765): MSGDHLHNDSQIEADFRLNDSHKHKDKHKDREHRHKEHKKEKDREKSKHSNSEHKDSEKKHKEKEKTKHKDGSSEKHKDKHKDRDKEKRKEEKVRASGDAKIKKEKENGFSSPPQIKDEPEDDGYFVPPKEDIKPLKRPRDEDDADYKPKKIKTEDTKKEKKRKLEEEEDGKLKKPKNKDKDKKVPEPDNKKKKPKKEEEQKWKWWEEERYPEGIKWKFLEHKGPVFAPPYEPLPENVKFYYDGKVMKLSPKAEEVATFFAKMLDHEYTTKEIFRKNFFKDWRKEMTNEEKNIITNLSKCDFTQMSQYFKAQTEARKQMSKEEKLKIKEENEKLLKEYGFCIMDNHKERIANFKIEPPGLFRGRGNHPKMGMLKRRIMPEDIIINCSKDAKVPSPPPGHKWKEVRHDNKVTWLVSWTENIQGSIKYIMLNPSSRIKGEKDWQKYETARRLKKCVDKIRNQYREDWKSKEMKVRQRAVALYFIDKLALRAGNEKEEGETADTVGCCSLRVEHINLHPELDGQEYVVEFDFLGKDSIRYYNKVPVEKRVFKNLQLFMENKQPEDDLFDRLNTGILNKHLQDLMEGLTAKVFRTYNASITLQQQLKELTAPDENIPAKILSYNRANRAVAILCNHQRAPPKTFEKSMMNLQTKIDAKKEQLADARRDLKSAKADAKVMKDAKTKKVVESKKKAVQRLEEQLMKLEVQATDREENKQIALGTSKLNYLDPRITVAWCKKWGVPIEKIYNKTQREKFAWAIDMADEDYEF
The experiment in a line: topoisomerase I-mediated DNA cleavage. It is filed as biochemical. The arrangement: key: +: weak activity; ++: similar activity as the parent compound 25; +++: greater activity than the parent compound 25; ++++: similar activity as 1 μM camptothecin. As to conditions: tested at concentrations ranging up to 10 μM; semi-quantitative. On the procedure: as §1

The mark [2] stands for this setting: average GI50 of all cell lines tested.

What is called GI50 is the concentration giving 50% growth inhibition. As for `O=C1c2cc3c(cc2C2C1c1ccc([N+](=O)[O-])cc1C(=O)N2CCCBr)OCO3` (racemic) [Compound 12], the GI50 with UACC-62, in the data set on MDA-MB-435, in the data set with HCT-116, in the data set on SF-268, with DU-145 and with SN12C was below 10 nM throughout. In addition, the GI50 in the data set on HOP-62 and in the data set on OVCAR-3 was below 10 nM each time. The “activity (MGM)” value in data set [1] (setting [2]) was found to be 16 nm. For the same compound, the “MGM (mean graph midpoint for growth inhibition)” value in data set [1] stood at 0.016 ± 0.003 µM. Moreover, the “Top 1 Cleavage” value on topoisomerase I (top1) was “+”.

With `O=C1c2cc3c(cc2C2C1c1ccc([N+](=O)[O-])cc1C(=O)N2CCCCl)OCO3` (racemic) [Compound 13], the GI50 in the data set with UACC-62, with MDA-MB-435, with HCT-116, in the data set on SF-268, in the data set on DU-145 and with SN12C was below 10 nM throughout. Further, the GI50 in the data set with HOP-62 and in the data set on OVCAR-3 was below 10 nM each time. Also, the “activity (MGM)” value in data set [1] (setting [2]) was 18 nm. The “MGM (mean graph midpoint for growth inhibition)” value in [1] came to 0.018 ± 0.001 µM. In addition, the “Top 1 Cleavage” value on topoisomerase I (top1) is reported as “+”.

As to `CN1C(=O)c2cc([N+](=O)[O-])ccc2C2C(=O)c3cc4c(cc3C21)OCO4` (racemic) [Compound 14], the GI50 with UACC-62 was 26 nM; in the data set with MDA-MB-435, 107 nM; in the data set with HCT-116, 14 nM; in the data set with SF-268, 24 nM; in the data set on DU-145, 50 nM; in the data set on SN12C, 33 nM. Moreover, the GI50 in the data set on HOP-62 is 158 nM; in the data set with OVCAR-3 it was 30 nM. Besides, the “MGM (mean graph midpoint for growth inhibition)” value in [1] is 0.105 ± 0.007 µM. The “Top 1 Cleavage” value on topoisomerase I (top1) is listed as “+++”.

`O=C1c2cc3c(cc2-c2c1c1ccc([N+](=O)[O-])cc1c(=O)n2CCCCl)OCO3` [Compound 15]: the GI50 came out at 229 nM in the data set with UACC-62; 1820 nM with MDA-MB-435; 2400 nM with HCT-116; 148 nM in the data set on SF-268; 98 nM with DU-145; 132 nM in the data set with SN12C. Moreover, the GI50 in the data set with HOP-62 came to 410 nM; in the data set with OVCAR-3 it was 9120 nM. For the same compound, the “MGM (mean graph midpoint for growth inhibition)” value in [1] was found to be 0.832 µM. In addition, the “Top 1 Cleavage” value on topoisomerase I (top1) is “+++”.

In the case of `[N-]=[N+]=NCCCn1c2c(c3ccc([N+](=O)[O-])cc3c1=O)C(=O)c1cc3c(cc1-2)OCO3` [Compound 16], the GI50 in the data set with UACC-62, with MDA-MB-435, in the data set on HCT-116, in the data set on SF-268, with DU-145 and in the data set on SN12C was below 10 nM each time. Further, the GI50 in the data set with HOP-62 and in the data set with OVCAR-3 was below 10 nM throughout. Further, in data set [1] (setting [2]), the “cytotoxicity (MGM) as stated in text” value is reported as 98 nM. In addition, the “MGM (mean graph midpoint for growth inhibition)” value in [1] stood at 0.098 ± 0.06 µM. For the same compound, the “Top 1 Cleavage” value at topoisomerase I (top1) was “++++”.

`Cl.Nc1ccc2c3c(n(CCCCl)c(=O)c2c1)-c1cc2c(cc1C3=O)OCO2` [Compound 18]: the GI50 in the data set on UACC-62, in the data set on MDA-MB-435, in the data set on SF-268, with SN12C and in the data set on OVCAR-3 was above 100000 nM each time. Further, the “MGM (mean graph midpoint for growth inhibition)” value in data set [1] was found to be 25 µM. For the same compound, the “Top 1 Cleavage” value at topoisomerase I (top1) came out at 0.

Take `O=C1c2ccccc2-c2c1c1ccc([N+](=O)[O-])cc1c(=O)n2CCCBr` [Compound 20]: the GI50 in the data set on UACC-62 was above 100000 nM; in the data set with MDA-MB-435 it was above 100000 nM; in the data set on HCT-116, 3450 nM; in the data set with SF-268, above 100000 nM; with DU-145 it was above 100000 nM; in the data set on SN12C, above 100000 nM. In addition, the GI50 in the data set with OVCAR-3 was above 100000 nM. The “MGM (mean graph midpoint for growth inhibition)” value in [1] was determined as 40 µM. The “Top 1 Cleavage” value at topoisomerase I (top1) is 0.

On to `O=C1c2ccccc2-c2c1c1ccc([N+](=O)[O-])cc1c(=O)n2CCCCl` [Compound 22], for which the GI50 with UACC-62 (Homo sapiens, UACC-62) was 20400 nM; with MDA-MB-435 (Homo sapiens, MDA-MB-435), 31600 nM; in the data set with HCT-116 (Homo sapiens, HCT-116), 3630 nM; with SF-268 (Homo sapiens, SF-268) it was 23400 nM; in the data set on DU-145 (Homo sapiens, DU-145), 40700 nM; in the data set with SN12C (Homo sapiens, SN12C), 26900 nM. The GI50 in the data set on HOP-62 (Homo sapiens, HOP-62) was 43700 nM; in the data set with OVCAR-3 (Homo sapiens, OVCAR-3), 4900 nM. The “MGM (mean graph midpoint for growth inhibition)” value in [1] was 18.2 µM.

For `[N-]=[N+]=NCCCn1c2c(c3ccc([N+](=O)[O-])cc3c1=O)C(=O)c1ccccc1-2` [Compound 23], the 50% growth inhibitory concentration (GI50) was 44700 nM in the data set on UACC-62 (Homo sapiens, UACC-62); above 100000 nM with MDA-MB-435 (Homo sapiens, MDA-MB-435); 8130 nM in the data set on HCT-116 (Homo sapiens, HCT-116); 79400 nM with SF-268 (Homo sapiens, SF-268); above 100000 nM in the data set with DU-145 (Homo sapiens, DU-145); 72400 nM with SN12C (Homo sapiens, SN12C). In addition, in the data set on HOP-62 (Homo sapiens, HOP-62), the GI50 is above 100000 nM. Further, the “MGM (mean graph midpoint for growth inhibition)” value in data set [1] amounted to 13.5 µM.

`Cl.NCCCn1c2c(c3ccc([N+](=O)[O-])cc3c1=O)C(=O)c1ccccc1-2` [Compound 24]: the GI50 in the data set on UACC-62 stood at 372 nM; in the data set on HCT-116, 85 nM; with SF-268, 302 nM; with DU-145 it was 148 nM; with SN12C, 102 nM; in the data set on HOP-62, 275 nM. For the same compound, the “MGM (mean graph midpoint for growth inhibition)” value in [1] stood at 0.245 µM.
